This note sets out measurements from patent publication US20090099192A1, “Substituted 1H-pyrrole-2,5-diones” (Bayer CropScience AG, priority 2004, published 2009).

For data set [1], the system named is green peach aphid (Myzus persicae). Put plainly: Myzus test (spray treatment, Brassica pekinensis). Format: in vivo. As to conditions: for Kill rate in % after 5 d: 500 g/ha, spray, Brassica pekinensis disks. How it is done: [table] To produce a suitable preparation of active compound, 1 part by weight of active compound is mixed with the stated amounts of solvents and emulsifier, and the concentrate is diluted with emulsifier-containing water to the desired concentration. Disks of Chinese cabbage (Brassica pekinensis) which are infested by all stages of the green peach aphid (Myzus persicae) are sprayed with an active compound preparation of the desired concentration. After the desired period of time, the effect in % is determined. 100% means that all aphids have been killed; 0% means that none of the aphids have been killed.

Data set [2] relates to caterpillars of the diamond back moth (Plutella xylostella). Put plainly: Plutella test. Format: in vivo. On the procedure:
(§1) [table] To produce a suitable preparation of active compound, 1 part by weight of active compound is mixed with the stated amounts of solvent and emulsifier, and the concentrate is diluted with emulsifier-containing water to the desired concentration. Cabbage leaves (Brassica oleracea) are treated by being dipped into the active compound preparation of the desired concentration and populated with caterpillars of the diamond back moth (Plutella xylostella) while the leaves are still moist. After the desired period of time, the kill in % is determined. 100% means that all caterpillars have been killed; 0% means that none of the caterpillars have been killed.

The subject of data set [3] is larvae of the mustard beetle (Phaedon cochleariae). Put plainly: Phaedon larvae test (cabbage leaves dipped). The data set is classed as in vivo. On the procedure:
[table] To produce a suitable preparation of active compound, 1 part by weight of active compound is mixed with the stated amount of solvent and the stated amount of emulsifier, and the concentrate is diluted with water to the desired concentration. Cabbage leaves (Brassica oleracea) are treated by being dipped into the active compound preparation of the desired concentration and populated with larvae of the mustard beetle (Phaedon cochleariae) while the leaves are still moist. After the desired period of time, the kill in % is determined. 100% means that all beetle larvae have been killed; 0% means that none of the beetle larvae have been killed.

Data set [4] deals with black bean aphid (Aphis fabae). Put plainly: Aphis fabae test. The data set is classed as in vivo. How it is done:
as §1, with “Shoots of young broadbeans (Vicia faba) which are heavily infested by the black bean aphid (Aphis fabae)” for “Cabbage leaves (Brassica oleracea)”, “concentration.” for “concentration and populated with caterpillars of the diamond back moth (Plutella xylostella) while the leaves are still moist.”, “aphids” for “caterpillars”

The subject of data set [5] is caterpillars of the army worm (Spodoptera frugiperda). Put plainly: Spodoptera frugiperda test (cabbage leaves dipped). The data set is classed as in vivo. As to conditions: for Kill rate in % after 7 d: 500 ppm, leaf dip, Brassica oleracea. How it is done: [table] To produce a suitable preparation of active compound, 1 part by weight of active compound is mixed with the stated amount of solvent and the stated amount of emulsifier, and the concentrate is diluted with emulsifier-containing water to the desired concentration. Cabbage leaves (Brassica oleracea) are treated by being dipped into the active compound preparation of the desired concentration and populated with caterpillars of the army worm (Spodoptera frugiperda) while the leaves are still moist. After the desired period of time, the kill in % is determined. 100% means that all caterpillars have been killed; 0% means that none of the caterpillars have been killed.

In a further data set the test system is Meloidogyne incognita. Put plainly: Meloidogyne test (gall formation on lettuce roots). The data set is classed as in vivo. As to conditions: for Kill rate in % after 14 d (nematicidal effect by gall formation): 20 ppm, lettuce in sand. On the procedure:
[table] To produce a suitable preparation of active compound, 1 part by weight of active compound is mixed with the stated amounts of solvent and emulsifier, and the concentrate is diluted with water to the desired concentration. Vessels are filled with sand, active compound solution, Meloidogyne incognita egg/larvae suspension and lettuce seeds. The lettuce seeds germinate and the plants develop. On the roots, galls are formed. After the desired period of time, the nematicidal effect is determined in % by means of gall formation. 100% means that no galls were found; 0% means that the number of galls on the treated plants corresponds to that of the untreated control.

The nature of data set [6]: logP determination by HPLC on reversed-phase column (C 18), EEC Directive 79/831 Annex V.A8. The data set is classed as physicochemical. As to conditions: reversed-phase C 18, 43° C., acid range (0.1% aqueous phosphoric acid, acetonitrile), marked a). In a few lines:
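Reversed-phase C18 HPLC at 43° C, per EEC Directive 79/831 Annex V.A8, acid range: 0.1% aqueous phosphoric acid with linear 10–90% acetonitrile gradient. logP derived from retention time by linear interpolation between calibrating unbranched alkan-2-ones (C3–C16) of known logP.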

Data set [7] concerns green peach aphid (Myzus persicae). Put plainly: Myzus test (spray treatment, Brassica oleracea). As to conditions: for Kill rate in % after 7 d: 500 g/ha, spray, Brassica oleracea. The data set is classed as in vivo. How it is done: (§2) [table] To produce a suitable preparation of active compound, 1 part by weight of active compound is mixed with the stated amounts of solvent and emulsifier, and the concentrate is diluted with emulsifier-containing water to the desired concentration. Cabbage leaves (Brassica oleracea) which are heavily infested by the green peach aphid (Myzus persicae) are treated by spraying with the active compound preparation at the desired concentration. After the desired period of time, the kill in % is determined. 100% means that all animals have been killed; 0% means that none of the animals have been killed.

The subject of data set [8] is larvae of the mustard beetle (Phaedon cochleariae). Put plainly: Phaedon test (spray treatment). The data set is classed as in vivo. As to conditions: for Kill rate in % after 7 d: 500 g/ha, spray, Brassica pekinensis disks. On the procedure:
(§3) [table] To produce a suitable preparation of active compound, 1 part by weight of active compound is mixed with the stated amounts of solvents and emulsifier, and the concentrate is diluted with emulsifier-containing water to the desired concentration. Disks of Chinese cabbage (Brassica pekinensis) are sprayed with an active compound preparation of the desired concentration and, after drying, populated with larvae of the mustard beetle (Phaedon cochleariae). After the desired period of time, the effect in % is determined. 100% means that all beetle larvae have been killed; 0% means that none of the beetle larvae have been killed.

Data set [9] relates to cotton aphid (Aphis gossypii). Put plainly: Aphis gossypii test. The data set is classed as in vivo. As to conditions: for Kill rate in % after 7 d: 500 g/ha, spray, Gossypium hirsutum. On the procedure:
as §2, with “Cotton” for “Cabbage”, “(Gossypium hirsutum)” for “(Brassica oleracea)”, “cotton” for “green peach”, “(Aphis gossypii)” for “(Myzus persicae)”

Data set [10] relates to common spidermite (Tetranychus urticae). Put plainly: Tetranychus test. The data set is classed as in vivo. As to conditions: for Kill rate in % after 5 d: 500 ppm, spray, Phaseolus vulgaris disks. On the procedure: To produce a suitable preparation of active compound, 1 part by weight of active compound is mixed with the stated amounts of solvent and emulsifier, and the concentrate is diluted with emulsifier-containing water to the desired concentration.
Disks of beans (Phaseolus vulgaris), which are infested by all stages of the common spidermite (Tetranychus urticae) are sprayed with an active compound preparation of the desired concentration.
After the desired period of time, the effect in % is determined. 100% means that all spidermites have been killed; 0% means that none of the spidermites have been killed.

Data set [11] relates to caterpillars of the army worm (Spodoptera frugiperda). Put plainly: Spodoptera frugiperda test (corn leaf disks sprayed). As to conditions: for Kill rate in % after 7 d: 500 g/ha, spray, Zea mays leaf disks. The data set is classed as in vivo. On the procedure:
as §3, with “corn leaves (Zea mays)” for “Chinese cabbage (Brassica pekinensis)”, “caterpillars” for “larvae”, “army worm (Spodoptera frugiperda).” for “mustard beetle (Phaedon cochleariae).”, “caterpillars” for “beetle larvae”

For data set [12], the system named is green peach aphid (Myzus persicae). Put plainly: Myzus test - oral. The data set is classed as in vivo. As to conditions: for Kill rate in % after 6 d: 20 ppm, oral (sucking). On the procedure:
[table] To produce a suitable preparation of active compound, 1 part by weight of active compound is mixed with the stated amounts of solvent, and the concentrate is diluted with water to the desired concentration. Vessels are populated with all stages of the green peach aphid (Myzus persicae), which are treated by sucking on the active compound preparation of the desired concentration. After the desired period of time, the effect in % is determined. 100% means that all aphids have been killed; 0% means that none of the aphids have been killed.

By melting point is commonly meant the temperature of the solid-liquid transition. Molecule `CCN1C(=O)C(O)=C(c2c(C)cc(C)cc2C)C1=O` [Example 1, 1-ethyl-3-hydroxy-4-(2,4,6-trimethylphenyl)-1H-pyrrole-2,5-dione] yielded a melting point of 168 °C.

As to `CCN1C(=O)C(OC(=O)C(C)(C)C)=C(c2c(C)cc(C)cc2C)C1=O` [Example 2, 1-ethyl-3-pivaloyloxy-4-(2,4,6-trimethylphenyl)-1H-pyrrole-2,5-dione], the melting point is 91 °C. Also, in data set [1], the “activity in the Myzus test (spray, Brassica pekinensis)” value is “good activity” and the “Kill rate in % after 5 d” value is 90%.

Take `CCN1C(=O)C(OC(C)=O)=C(c2c(C)cc(C)cc2C)C1=O` [Example 3]: in data set [1], the “activity in the Myzus test (spray, Brassica pekinensis)” value is “good activity” and the “Kill rate in % after 5 d” value was found to be 90%. Moreover, the “activity in the Plutella test” value in data set [2] is “good activity”. Further, the “Kill rate in % after 7 d” value in data set [2] (1000 ppm, leaf dip) stood at 90%.

Take `C=CCN1C(=O)C(O)=C(c2c(C)cc(C)cc2C)C1=O` [Example 4]: in [3], the “activity in the Phaedon larvae test” value is reported as “good activity”. Also, in [3] (1000 ppm, leaf dip, Brassica oleracea), the “Kill rate in % after 7 d” value was determined as 100%. In data set [1], the “activity in the Myzus test (spray, Brassica pekinensis)” value is recorded as “good activity” and the “Kill rate in % after 5 d” value was 70%. Moreover, the “activity in the Aphis fabae test” value in data set [4] is listed as “good activity”. For the same molecule, in data set [4] (1000 ppm, Vicia faba shoots dipped), the “Kill rate in % after 6 d” value is 99%.

As for `O=C1C(O)=C(c2ccc(C(F)(F)F)cc2)C(=O)N1c1ccc(OC(F)(F)F)cc1` [Example 10], in data set [5], the “activity in the Spodoptera frugiperda test (leaf dip)” value was “good activity” and the “Kill rate in % after 7 d” value is listed as 100%. In the data set on Meloidogyne incognita, the “activity in the Meloidogyne test” value is “good activity” and the “Kill rate in % after 14 d (nematicidal effect by gall formation)” value (“Kill rate in % after 14 d” for short) came out at 99%. Also, the logP result in [6] is “logP = 3.64^a)”.

On to `CC(C)(C)C(=O)OC1=C(c2ccccc2Br)C(=O)N(C2CCCC(C(F)(F)F)C2)C1=O` (stereo not drawn) [Example 185], for which, in data set [7], the “activity in the Myzus test (spray, Brassica oleracea)” value is reported as “good activity” and the “Kill rate in % after 7 d” value stood at 95%. Besides, in data set [1], the “activity in the Myzus test (spray, Brassica pekinensis)” value is reported as “good activity” and the “Kill rate in % after 5 d” value was determined as 100%. In addition, in [8], the “activity in the Phaedon test (spray treatment)” value (“activity in the Phaedon test” below) is recorded as “good activity” and the “Kill rate in % after 7 d” value was 100%. Further, in data set [9], the “activity in the Aphis gossypii test” value is recorded as “good activity” and the “Kill rate in % after 7 d” value was found to be 95%. Moreover, in data set [10], the “activity in the Tetranychus test” value is given as “good activity” and the “Kill rate in % after 5 d” value is listed as 80%. In [11], the “activity in the Spodoptera frugiperda test (spray)” value is given as “good activity” and the “Kill rate in % after 7 d” value worked out at 100%. Moreover, the logP entry in data set [6] is recorded as “logP = 5.34^a)”. In addition, in data set [12], the “activity in the Myzus test - oral” value was “good activity” and the “Kill rate in % after 6 d” value came to 100%.

With `CC(C)(C)C(=O)OC1=C(c2ccccc2Cl)C(=O)N(C2CCCC(C(F)(F)F)C2)C1=O` (stereo not drawn) [Example 201], in [7], the “activity in the Myzus test (spray, Brassica oleracea)” value is reported as “good activity” and the “Kill rate in % after 7 d” value is 98%. For the same molecule, in data set [1], the “activity in the Myzus test (spray, Brassica pekinensis)” value is “good activity” and the “Kill rate in % after 5 d” value worked out at 100%. Moreover, in data set [8], the “activity in the Phaedon test” value was “good activity” and the “Kill rate in % after 7 d” value is 100%. In addition, in [9], the “activity in the Aphis gossypii test” value was “good activity” and the “Kill rate in % after 7 d” value worked out at 99%. In [10], the “activity in the Tetranychus test” value is “good activity” and the “Kill rate in % after 5 d” value is 100%. Further, in data set [11], the “activity in the Spodoptera frugiperda test (spray)” value is reported as “good activity” and the “Kill rate in % after 7 d” value came to 100%. Further, in data set [6], the logP entry was “logP = 5.29^a)”. In data set [12], the “activity in the Myzus test - oral” value was “good activity” and the “Kill rate in % after 6 d” value is listed as 100%.

In the case of `N#Cc1ccc(C2=C(O)C(=O)N(C3CCCC(C(F)(F)F)C3)C2=O)cc1` (stereo not drawn) [Example 215], in data set [5], the “activity in the Spodoptera frugiperda test (leaf dip)” value is “good activity” and the “Kill rate in % after 7 d” value was 85%. Besides, in the data set on Meloidogyne incognita, the “activity in the Meloidogyne test” value is on record as “good activity” and the “Kill rate in % after 14 d” value was 80%. The logP result in [6] is “logP = 3.04^a)”.

As for `CC(C)(C)C(=O)OC1=C(c2ccccc2C(F)(F)F)C(=O)N(C2CCCC(C(F)(F)F)C2)C1=O` (stereo not drawn) [Example 220], in data set [1], the “activity in the Myzus test (spray, Brassica pekinensis)” value is reported as “good activity” and the “Kill rate in % after 5 d” value turned out to be 100%. Also, in [8], the “activity in the Phaedon test” value is recorded as “good activity” and the “Kill rate in % after 7 d” value worked out at 100%. In addition, in the data set with Meloidogyne incognita, the “activity in the Meloidogyne test” value is “good activity” and the “Kill rate in % after 14 d” value stood at 80%.
